{"source": "patent US8178506B2", "about": "“Oligomeric compounds and compositions for use in modulation of small non-coding RNAs” (Regulus Therapeutics Inc., priority 2003, dated 2012)", "key": {"mir-143 pri-miRNA": {"tested_on": "mir-143 pri-miRNA", "test": "mir-143 pri-miRNA levels in differentiating adipocytes (real-time RT-PCR)", "assay_type": "cell-based, human", "details": "differentiated adipocytes 9 days vs 3 days post-differentiation", "procedure": "Here, oligomeric compounds targeting mir-143 were transfected into preadipocytes which were then induced to differentiate, in order to assess the effects of these compounds on mir-143 pri-miRNA levels during differentiation. mir-143 pri-miRNA levels were assessed on days 3 and 9 after differentiation.\nIn addition to the uniform 2′-MOE phosphorothioate oligomeric compound ISIS Number 327901 (SEQ ID NO: 319) targeting mature mir-143, a 5-10-7 gapmer oligomeric compound, ISIS Number 340927 (SEQ ID NO: 319), was designed to target mature mir-143. […] ISIS 342672 and ISIS 342673 are uniform 2′-MOE phosphorothioate oligomeric compounds 22 nucleotides in length. ISIS Number 342677 (SEQ ID NO: 789) and ISIS Number 342678 (SEQ ID NO: 758) are the corresponding 5-10-7 scrambled 2′-MOE gapmer oligomeric compounds. All cytidine residues are 5-methylcytidines. […]\nThese compounds were transfected into differentiating adipocytes and their effects on levels of the mir-143 pri-miRNA molecule were assessed in pre-adipocytes vs. differentiated adipocytes, by real-time RT-PCR using the primer/probe set specific for the mir-143 pri-miRNA (forward primer=ISIS 339314, SEQ ID NO: 786; reverse primer=ISIS 342897, SEQ ID NO.: 787; probe=ISIS 342898, SEQ ID NO.: 788). […]"}, "ERK5 protein": {"tested_on": "ERK5 protein", "test": "Immunoblot of ERK5 protein in differentiating adipocytes", "assay_type": "cell-based, human", "details": "differentiating adipocytes 7- and 10-days post-differentiation, 250 nM", "procedure": "When miRNAs have effects on the expression of downstream genes or proteins encoded by these genes, it is advantageous to measure the protein levels of those gene products, and to do this, western blot (immunoblot) analysis is employed. Immunoblot analysis is carried out using standard methods. Briefly, preadipocytes and differentiating adipocytes were cultured as described previously, and differentiating adipocytes are sampled at several timepoints after stimulation of differentiation. Cells were treated with 250 nM oligomeric compounds and harvested 16-20 h after oligomeric compound treatment. Cells were washed, lysed in RIPA buffer with protease inhibitor cocktail (Roche Diagnostics Corporation, Indianapolis, Ind.), suspended in Laemmli buffer (20 ul/well), boiled for 5 minutes and loaded onto either an 8% SDS-PAGE or a 4-20% gradient SDS-PAGE gel. Gels are run for approximately 1.5 hours at 150 V, and transferred to PVDF membrane for western blotting. […] Bands are visualized and quantitated using a PHOSPHORIMAGER™ (Molecular Dynamics, Sunnyvale Calif.) or the ChemiDoc™ system (Bio-Rad Laboratories, Inc., Hercules, Calif.). Thus, the effects of treatment of many cell types (including, but not limited to, preadipocytes, differentiating adipocytes, HeLa, T-24 and A549 cells) with oligomeric compounds of the present invention on the levels of gene expression products can be assessed. […]"}}, "data": [{"sequence": "TGAGCTACAGTGCTTCATCTCA [ISIS 327901] (chemistry not given here) [uniform 2′-MOE PS; targets mir-143]", "values": [{"measurement": "levels of the mir-143 pri-miRNA", "setting": "mir-143 pri-miRNA", "value": "approximately 4 fold"}, {"measurement": "ERK5 protein levels vs pre-adipocytes or untreated differentiating adipocytes", "setting": "ERK5 protein", "value": "2-2.5 fold"}]}]}
